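Test compounds were applied to cells in 96-well plates for 48 hours at 5 doses. At the GI50, growth is halved. At the TGI there is no net growth.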
Tests used:
Assay in all cases: NCI-60 cell line screen, 48 h
786-0 renal = test system: 786-0 renal
A498 renal = test system: A498 renal
A549 NSCLC = test system: A549 NSCLC
ACHN renal = test system: ACHN renal
BT-549 breast = test system: BT-549 breast
CCRF-CEM leukemia = test system: CCRF-CEM leukemia
DU-145 prostate = test system: DU-145 prostate
EKVX NSCLC = test system: EKVX NSCLC
HOP-92 NSCLC = test system: HOP-92 NSCLC
HS 578T breast = test system: HS 578T breast
HT29 colon = test system: HT29 colon
IGROV1 ovarian = test system: IGROV1 ovarian
K-562 leukemia = test system: K-562 leukemia
KM12 colon = test system: KM12 colon
MDA-MB-231 breast = test system: MDA-MB-231 breast
MOLT-4 leukemia = test system: MOLT-4 leukemia
NCI-H226 lung = test system: NCI-H226 lung
NCI-H23 lung = test system: NCI-H23 lung
NCI/ADR-RES ovarian = test system: NCI/ADR-RES ovarian
OVCAR-4 ovarian = test system: OVCAR-4 ovarian
OVCAR-5 ovarian = test system: OVCAR-5 ovarian
PC-3 prostate = test system: PC-3 prostate
RPMI-8226 leukemia = test system: RPMI-8226 leukemia
RXF 393 renal = test system: RXF 393 renal
SF-268 CNS = test system: SF-268 CNS
SF-295 CNS = test system: SF-295 CNS
SF-539 CNS = test system: SF-539 CNS
SK-MEL-2 melanoma = test system: SK-MEL-2 melanoma
SK-MEL-28 melanoma = test system: SK-MEL-28 melanoma
SN12C renal = test system: SN12C renal
SNB-19 CNS = test system: SNB-19 CNS
SNB-75 CNS = test system: SNB-75 CNS
SR leukemia = test system: SR leukemia
SW-620 colon = test system: SW-620 colon
T-47D breast = test system: T-47D breast
TK-10 renal = test system: TK-10 renal
UACC-257 melanoma = test system: UACC-257 melanoma
UO-31 renal = test system: UO-31 renal

## CCCCCc1ccc(S(=O)(=O)Nc2cccc(-c3csc(NC(=O)CCCCCN4CCN(C)CC4)n3)c2)cc1
786-0 renal
  GI50: 1.86 µM
  TGI: 3.38 µM
A498 renal
  GI50: 3.36 µM
  TGI: 11.9 µM
A549 NSCLC
  GI50: 1.94 µM
  TGI: 4.38 µM
ACHN renal
  GI50: 1.86 µM
  TGI: 3.56 µM
BT-549 breast
  GI50: 2.29 µM
  TGI: 9.55 µM
CCRF-CEM leukemia
  GI50: 2.76 µM
  TGI: 13.7 µM
DU-145 prostate
  GI50: 2.11 µM
  TGI: 4.32 µM
EKVX NSCLC
  GI50: 2.07 µM
  TGI: 5.29 µM
HOP-92 NSCLC
  GI50: 1.44 µM
  TGI: 3.3 µM
HS 578T breast
  GI50: 1.92 µM
  TGI: 4.7 µM
HT29 colon
  GI50: 1.86 µM
  TGI: 3.67 µM
IGROV1 ovarian
  GI50: 2.27 µM
  TGI: 5.29 µM
K-562 leukemia
  GI50: 2.42 µM
  TGI: 17.5 µM
KM12 colon
  GI50: 1.86 µM
  TGI: 3.49 µM
MDA-MB-231 breast
  GI50: 1.85 µM
  TGI: 3.89 µM
MOLT-4 leukemia
  GI50: 2.98 µM
  TGI: 9.5 µM
NCI-H226 lung
  GI50: 2.55 µM
  TGI: 7.16 µM
NCI-H23 lung
  GI50: 2.46 µM
  TGI: 6.52 µM
NCI/ADR-RES ovarian
  GI50: 8.99 µM
  TGI: 39.4 µM
OVCAR-4 ovarian
  GI50: 2.74 µM
  TGI: 8.69 µM
OVCAR-5 ovarian
  GI50: 2.16 µM
  TGI: 5.13 µM
PC-3 prostate
  GI50: 2.2 µM
  TGI: 6.42 µM
RPMI-8226 leukemia
  GI50: 1.83 µM
  TGI: 4.38 µM
RXF 393 renal
  GI50: 1.64 µM
  TGI: 3.35 µM
SF-268 CNS
  GI50: 1.86 µM
  TGI: 3.93 µM
SF-295 CNS
  GI50: 1.93 µM
  TGI: 3.95 µM
SF-539 CNS
  GI50: 1.67 µM
  TGI: 3.09 µM
SK-MEL-2 melanoma
  GI50: 1.76 µM
  TGI: 3.47 µM
SK-MEL-28 melanoma
  GI50: 1.84 µM
  TGI: 3.37 µM
SN12C renal
  GI50: 2.74 µM
  TGI: 8.65 µM
SNB-19 CNS
  GI50: 2.9 µM
  TGI: 9.8 µM
SNB-75 CNS
  GI50: 1.6 µM
  TGI: 3.88 µM
SR leukemia
  GI50: 1.96 µM
  TGI: 4.79 µM
SW-620 colon
  GI50: 1.73 µM
  TGI: 3.23 µM
T-47D breast
  GI50: 1.96 µM
  TGI: 4.93 µM
TK-10 renal
  GI50: 2.03 µM
  TGI: 4.51 µM
UACC-257 melanoma
  GI50: 1.64 µM
  TGI: 3.23 µM
UO-31 renal
  GI50: 1.62 µM
  TGI: 3.23 µM
